Legend:
nAChR = details: cited from earlier work
[1] = system: primary cultures of rat neonatal cortex (cultured cortical neurons); format: cell-based

Substance: RDOCCYHPTCNMSNPQIC* [EI]
- Target: nAChR (subtype) (nAChR): α1γ = α1δβ2 musc.

Substance: A-O-A-N-S-V*-W-S [gla-1]
- effect on Ca^++ flux in the cells [1]: reducing Ca^++ flux
- modulation of Ca^++ flux in cultured neurons from rat cortex [1]: modulate Ca^++ flux

Substance: HOCCLYGK-CRRYOGCSSASASCCQR [ψPIIIE]
- nAChR activity annotation (nAChR): non comp. nAChR
